Experimental data taken from patent US20110081317A1, “Enhancing Gene Transfer” (UNIVERSITY OF ROCHESTER, priority 2007, published 2011).
Peptide text beside a SMILES is read from it. * marks the point of attachment. Cbz = O=C(OCc1ccccc1)*

Key:
HEK 293 cells [1] = assay: Plasmid (pCMV:luc) luciferase expression in transiently transfected HEK 293 cells; format: cell-based, Human; details: pCMV:luc transfected HEK 293; bortezomib 10 nM for 16 h; luciferase at 48 h
Method: Transient transfection of cells with plasmid DNA. 1×10^4 HEK 293 cells were seeded into 96-well plates and incubated overnight. Cells were then transfected with 50 ng of a mammalian expression plasmid encoding the luciferase reporter gene (pgWiz-CMV luciferase) using lipofectamine-2000 reagent in the presence or absence of lOnM bortezomib. Four (4) hours thereafter, media were removed and fresh media were added (with or without bortezomib). Cells were incubated for an additional 12 hours, and media were again replaced (this time without any exogenous drug). Forty-eight (48) hours after transfection of the cells, they were washed with PBS, incubated in 1× passive lysis buffer (Promega Corporation, Madison, Wis.) and lyzed using two freeze-thaw cycles. Protein content within the lysates was then quantitated using Bradford assay and equal amounts of lysate (normalized in terms of protein content) were used in luciferase assays. Luciferase assay data are reported in relative light units.
Therefore, a control experiment was performed to determine whether proteasome inhibition exerted an effect on luciferase expression from a non-phage based gene transfer agent containing the same luciferase expression cassette present in λD1180(luc). […]

HEK 293 cells [2] = assay: Phage-mediated luciferase gene transfer in HEK 293 cells; format: cell-based, Human; details: for effect on phage-mediated luciferase gene transfer: MOI 1×10^6, omeprazole 50 μM, brefeldin A 500 ng/ml, chloroquine 50 μM for 24 h
Method: (§1) Preparation of bacteriophage lambda lysogens and vector production. The λD1180(luc) lysogen (Dam15 del EcoRI-Sac1 clts857 nin5 Sam100) has been described (Eguchi et al., J. Biol. Chem. 276(28):26204-10, 2001). The λD1180(luc) phage contains a firefly luciferase reporter gene under the regulatory control of the human cytomegalovirus immediate-early promoter. λD1180(luc) phage particles were prepared from E. coli lysogens that were stably transformed with either a plasmid encoding wildtype gpD or plasmids encoding gpD fusion proteins of interest, as described (Zanghi et al., Nucleic Acids Res. 33(18):e160, 2005). λ(luc) particles were purified by CsCl density gradient centrifugation and titered on LE392 E. coli cells (Zanghi et al., Nucleic Acids Res. 33(18):e160,2005).
(§2) Cells lines and phage transduction. Human embryonic kidney (HEK) 293 cells and COS simian kidney cells were obtained from American Type Culture Collection (ATCC), P.O. Box 1549, Manassas, Va. 20108. Cells were cultured in Dulbecco's Modified Eagle's Medium (DMEM) containing 10% fetal bovine serum, plus 2 mM L-glutamine and 100 U/ml penicillin, 100 μg/ml streptomycin. Twenty-four to forty-eight (24-48) hours following addition of phage to cells, cultures were washed with phosphate buffered saline (PBS) and lysed in passive lysis buffer (Promega Corporation, Madison, Wis.). Protein content in the lysates was quantitated by Bradford assay, and equal amounts of lysate (normalized in terms of protein content) were used in luciferase assays. Luciferase assay data are reported in relative light units.
(§3) To analyze the function of the proteasome in phage-mediated gene transfer, HEK 293A cells and COS-7 cells were incubated with luciferase encoding phage particles, in the presence or absence of three different pharmacologic inhibitors of proteasome activity (lactacystin, bortezomib and MG132). Lactacystin is an irreversible inhibitor of the 20S-proteasome, while bortezomib and MG132 are reversible inhibitors of the 26S-proteasome complex. […] The latter phage were generated by producing genetically gpD-deficient lambda phage particles in E. coli host cells that expressed a recombinant derivative of gpD, fused to a truncated PEST-like motif derived from seeligeriolysin O, a cholesterol-dependent cytolysin of Listeria seeligeri.

HEK 293 cells [3] = assay: Quantitative analysis of intranuclear lambda phage genomic DNA (qPCR); format: cell-based, Human; details: Tpell phage, MOI 1×10^6, bortezomib 10 nM for 16 h, harvest at 24 h, p<0.01 vs untreated
Method: Quantitative analysis of intranuclear lambda phage genomic DNA. HEK 293 cells were incubated with phage lambda at a MOI of 10^6 in the presence or absence of 10 nM bortezomib. Sixteen (16) hours later, media was replaced with bortezomib-free DMEM (10% FBS); twenty-four (24) hours thereafter, cells were washed with cold PBS and non-internalized phage particles were then removed by performing 3 cold acid washes (0.2M CH3COOH, 0.5M NaCl, pH2.5), as described (Lankes et al., J. Appl. Microbiol 102(5):1337-49, 2007). […] Phage genomic DNA in the nuclear lysate was quantitated by DNA qPCR analysis on a BioRad iCycler using a TaqMan® (Roche Molecular Systems, Inc., Pleasanton, Calif.) primer/probe set specific for the lambda phage integrase gene (Probe: FAM-5′-[sequence]-3′-TAMRA (SEQ ID NO:2), Forward-5′-[sequence]-3′ (SEQ ID NO:3), Reverse-5′-[sequence]-3′ (SEQ ID NO:4)). Cellular chromosomal DNA in the nuclear lysate was also quantitated by DNA qPCR analysis using a TaqMan® (Roche Molecular Systems, Inc., Pleasanton, Calif.) primer/probe set specific for the 18S ribosomal RNA gene (Probe: FAM-5′-[sequence]-3′-TAMRA (SEQ ID NO:5), Forward-5′-[sequence]-3′ (SEQ ID NO:6), Reverse-5′-[sequence]-3′ (SEQ ID NO:7)). […]

HEK 293 cells [4] = assay: Cytotoxicity / tolerability of proteasome inhibitors in HEK 293 cells; format: cell-based, Human
COS cells = assay: Phage-mediated luciferase gene transfer in COS cells; format: cell-based, simian; details: luciferase at 48 h; for effect on phage-mediated luciferase gene transfer: MOI 1×10^6, omeprazole 50 μM, brefeldin A 500 ng/ml, chloroquine 70 μM for 24 h
Method: as §1, §2, §3

[5] = tested on: COS cells stably transfected with Fc receptor (CD64) and its associated gamma chain; assay: Plasmid/Lipofectamine-mediated luciferase gene transfer in CD64-expressing COS cells; format: cell-based; details: 30 min pretreatment, luciferase at 48 h; for increase in plasmid gene transfer efficiency: nocodazole 5 μM or paclitaxel 20 μg/ml
Method: FIG. 12 is a graph showing plasmid mediated luciferase gene transfer in cells treated with a microtubule inhibitor. A DNA plasmid encoding a luciferase reporter gene was mixed with Lipofectamine. This was then added to COS cells that had been stably transfected with expression plasmids encoding a cellular Fc receptor (CD64) and its associated gamma chain, in the presence or absence (DNA only and DNA+DMSO) of latrunculin A (120 nM), paclitaxel (20 μg/ml), or nocodazole (5 μM). Cells were harvested 48 hours later and lysed, and luciferase activity measured.
A DNA plasmid encoding a luciferase reporter gene was mixed with Lipofectamine™ (Invitrogen, Carlsbad, Calif.). This was then added to COS cells that had been stably transfected expression plasmids encoding a cellular Fc receptor
(CD64) and its associated gamma chain. DNA was added to cells that had been pretreated for 30 minutes in the presence or absence of the microtubule inhibitors, nocodazole (5 μM) or paclitaxel (20 μg/ml), or the actin polymerization inhibitor, latrunculin A (120 nM). Cells were harvested 48 hours after transfection and lysed, and luciferase activity was measured.

HEK 293 cells [6] = assay: Measurement of endosomal pH by flow cytometry of fluorescein/tetramethylrhodamine dextran; format: cell-based, Human; details: 500 nM bafilomycin A1
Method: Measurement of endosomal pH. 5×10^5 HEK293 cells were preincubated in DMEM medium with 10% FBS (DMEM-10) overnight, after which the medium was replaced by DMEM-10 containing 2 mg/ml 70kD fluorescein and tetramethylrhodamine dextran (Invitrogen, Carlsbad, Calif.) plus either 100 nM or 500 nM bafilomycin A1 (BAF) or 2 mg/mL of nigericin (positive control) or no drug (negative control). One and a half (1.5) hours later, cells were washed in warm PBS and fresh media was added (with or without BAF or nigericin, as appropriate). Two (2) hours thereafter, cells were again washed with warm PBS, detached by trypsinization, washed with fresh media (with or without BAF or nigericin, as appropriate), and pelleted by centrifugation (5 minutes, 1000 g at 4° C.). Fluorescein
(F) and tetramethylrhodamine (T) fluorescence were quantitated by flow cytometric analysis using a FACS Calibur (Becton Dickinson). A standard curve was generated by suspending aliquots of cells (in the presence of 2 mg/ml of nigericin) in PBS at pH 4, 4.4, 5, 5.4, 6 and 6.4. The ratio of T/F fluorescence was then plotted against pH, to generate a standard curve; data from the bafilomycin-treated and non-treated cells were then extrapolated to this curve, in order to calculate endosomal pH.

COS-7 cells = assay: Adenovirus vector (AdLucGFP) mediated luciferase gene transfer in COS-7 cells; format: cell-based; details: AdLucGFP MOI 10, latrunculin A 120 nM added 30 min before transduction
Method: FIG. 13 is a graph showing, in cells treated with paclitaxel, nocodazole, or latrunculin A, adenoviral-mediated luciferase gene transfer. Latrunculin A ([…]), paclitaxel (20 μg/ml), or nocodazole (5 μM) was added to cells 30 minutes prior to transduction of COS-7 cells with a luciferase-expressing adenovirus vector (AdLucGFP) at a multiplicity of infection (MOI) of 10. Media were changed 24-hours post-transfection, and cells were lysed in Passive Lysis Buffer 24 hours later. Protein quantities were standardized and luciferase activity was measured in the cell lysates. The mean control level is shown as Ad only.
Latrunculin A (120 nM), paclitaxel (Taxol® (Bristol Meyers Squibb, Princeton, N.J.), 20 μg/ml), or nocodazole (5 μM) was added to cells 30 minutes prior to transduction of COS-7 cells with a luciferase-expressing adenovirus vector (AdLucGFP) at a multiplicity of infection (MOI) of 10. Media were changed 24-hours post-transfection, and cells were lysed in Passive Lysis Buffer 24 hours later. Protein quantities were standardized and luciferase activity was measured in the cell lysates.

[7] = Tpell phage, luciferase at 48 h

CC(C)C[C@H](NC(=O)[C@H](Cc1ccccc1)NC(=O)c1cnccn1)B(O)O [bortezomib]
effect on plasmid-mediated luciferase expression (HEK 293 cells [1]): no effect | effect of extended exposure on phage-mediated gene transfer (HEK 293 cells [2]; Tpell phage, MOI 1×10^6, bortezomib 10 nM for 24 h, luciferase at 48 h): robust, statistically significant, enhancement | effect on phage-mediated luciferase gene expression, agents alone and combined (HEK 293 cells [2]; Tpell phage, MOI 1×10^6, drugs for 24 h, luciferase at 48 h (FIG. 9)): modest increase | nuclear accumulation of phage DNA (copies of lambda phage genomic DNA per cell) (HEK 293 cells [3]): statistically significant increase | cytotoxicity relative to the other proteasome inhibitors tested (HEK 293 cells [4]): least cytotoxic

COc1ccc2[nH]c([S+]([O-])Cc3ncc(C)c(OC)c3C)nc2c1 (stereo not shown) [omeprazole]
effect on phage-mediated luciferase gene transfer (COS cells; Tpell phage): no effect | effect on phage-mediated luciferase gene transfer (HEK 293 cells [2]; [7]): no effect

COC(=O)Nc1nc2ccc(C(=O)c3cccs3)cc2[nH]1 [nocodazole]
increase in plasmid gene transfer efficiency [5]: approx 50 fold

CC(=O)O[C@H]1C(=O)[C@@]2(C)[C@H]([C@H](OC(=O)c3ccccc3)[C@]3(O)C[C@H](OC(=O)[C@H](O)[C@@H](NC(=O)c4ccccc4)c4ccccc4)C(C)=C1C3(C)C)[C@]1(OC(C)=O)CO[C@@H]1C[C@@H]2O [paclitaxel]
increase in plasmid gene transfer efficiency [5]: approx 50 fold

CC(C)C[C@@H](C=O)NC(=O)[C@H](CC(C)C)NC(=O)[C@H](CC(C)C)NC(=O)OCc1ccccc1 [MG132] (Cbz-Leu-Leu-Leu-aldehyde)
effect on phage-mediated luciferase gene expression (COS cells; WT and Tpell phage, MOI 1×10^6, lactacystin 3 μM, bortezomib 10 nM, MG132 1 μM for 16 h): strong trend | enhancement of phage-mediated luciferase expression (HEK 293 cells [2]; WT and Tpell phage, MOI 1×10^6, MG132 1 μM for 16 h, luciferase at 48 h, vs untreated cells): 5-10 fold

CO/C1=C\C(C)=C\[C@@H](C)[C@@H](O)[C@@H](C)C/C(C)=C/C=C/[C@H](OC)[C@@H]([C@@H](C)[C@@H](O)[C@H](C)[C@@]2(O)C[C@@H](O)[C@H](C)[C@@H](C(C)C)O2)OC1=O [bafilomycin A1]
effect on phage-mediated gene transfer (COS cells; Tpell phage, MOI 1×10^6, bafilomycin A for 24 h): no effect | effect on phage-mediated gene transfer (HEK 293 cells [2]; Tpell phage, MOI 1×10^6, bafilomycin A for 24 h, luciferase at 48 h): no effect | effect on endosomal pH (HEK 293 cells [6]): sufficient to raise endosomal pH

C[C@H]1CCC/C=C/[C@@H]2C[C@H](O)C[C@H]2[C@H](O)/C=C/C(=O)O1 [brefeldin A]
effect on phage-mediated luciferase gene transfer (COS cells; Tpell phage): no effect | effect on phage-mediated luciferase gene transfer (HEK 293 cells [2]; [7]): no effect

CCN(CC)CCCC(C)Nc1ccnc2cc(Cl)ccc12 (stereo not shown) [chloroquine]
effect on phage-mediated luciferase gene transfer (COS cells; Tpell phage): statistically significant enhancement

C/C1=C/C(=O)O[C@@H]2C[C@@H](CC[C@H](C)/C=C\C=C\CC1)O[C@@](O)([C@@H]1CSC(=O)N1)C2 [latrunculin A]
effect on efficiency of plasmid DNA expression ([5]; latrunculin A 120 nM): no effect | effect on adenoviral gene transfer efficiency (COS-7 cells): no effect
